Test results as given in patent US8598131B2, “Method for treatment of lung infections by administration of aminoglycosides by aerolisation” (priority 2010, dated 2013).

Tests used:
[1] = Gamma scintigraphy lung deposition, two way crossover study; conditions: standard treatment, 300 mg using 5 mL in a Pari nebulizer
Description: To assess the lung deposition of Tobramycin according to the therapeutic method according to the present disclosure, a two way non-randomised crossover study to studying the pulmonary distribution and pharmacokinetics in healthy subjects following single dose administration of Tobramycin via the Tobrair® device and PARI LC® PLUS jet nebulizer was performed. The study was designed as an open-labelled study as it is not possible to mask the identity of the aerosol delivery system used.
18 healthy, voluntary males and healthy, voluntary, non-pregnant, non-lactating females where subjected to the following treatment regimes:
Approximately 63 mg Tobramycin (180 mg/mL×0.35 mL) delivered to the lungs via the novel Tobrair® device over 7 deep, slow inhalations.
Gamma scintigraphy may also provide an assessment of the regional distribution of deposited drug or formulation in the lungs, with central regions representing mainly large airways and peripheral regions representing mainly small airways and alveoli.
In order to use gamma scintigraphy to assess the bronchopulmonary distribution of Tobramycin, the drug solution was labelled with a gamma emitting radioisotope as a surrogate marker. More specifically, technetium-99m diethylene triamine pentacetic acid (^99mTc-DTPA) was used in this study to achieve 10-20 MBq per dose using the Tobrair® device and PARI LC® PLUS jet nebulizer.

[2] = Safety assessment in the clinical study (adverse events, local irritation); type: in vivo; conditions: 180 mg Tobramycin per ml, healthy subjects
Description: According to one aspect of the present disclosure, a pharmaceutical solution comprising 180 mg Tobramycin per ml water is used. This corresponds to approximately 3 fold the concentration of the solution in the marketed product (TOBI®). Tobramycin at 60 mg/mL is known to be well tolerated in healthy volunteers even at higher total dose levels; however it is considered that this increase in concentration potentially increases the risk of local irritation, but is not considered to be the primary driver for systemic exposure or systemic side effects in this study since the total dose level is lower.
Safety was assessed as well by reviewing adverse events data and vital signs data including pulse oximetry and spirometry data.

NCC1OC(OC2C(N)CC(N)C(OC3OC(CO)C(O)C(N)C3O)C2O)C(N)CC1O [Tobramycin, (2S,3R,4S,5S,6R)-4-amino-2-{[(1S,2S,3R,4S,6R)-4,6-diamino-3-{[2R,3R,5S,6R)-3-amino-6-(aminomethyl)-5-hydroxyoxan-2-yl]oxy}-2-(hydroxymethylcyclohexyl]oxy)-6-(hydroxymethyl)oxane-3,5-diol]
dose reaching the lungs [1]: approx. 10% | local irritation [2]: only a few incidents of local irritation
